Laboratory results published in patent US8263079B2, “Antibodies against CSF-1R” (ImClone, LLC, priority 2010, dated 2012).

Legend:
HCC-1954 breast cells = experiment: Breast tumor combination studies, HCC-1954 xenograft; type: in vivo, mouse
From the text: Inject Nu/nu mice (female, 7-8 weeks of age) subcutaneously with 1×10^7 HCC-1954 breast cells/mouse and allow tumors to reach 300 mm^3 before treatment. Randomize mice into groups of 12 and treat as follows:
Measure tumor volumes and calculate the T/C % for each treatment group as the ratio of the relative tumor volumes versus the control group. Analyze tumor volumes using RM ANOVA.

DU145 prostate cells = experiment: Prostate tumor combination study, DU145 xenograft; type: in vivo, mouse; details: 12 mg/kg IP Q7Dx3, vs saline control, P 0.15
From the text: Inject Nu/nu mice (male, 7-8 weeks of age) subcutaneously with 1.5×10^7 DU145 prostate cells/mouse and allow tumors to reach 300 mm^3 before treatment. Randomize mice into groups of 10 and treat as follows:
Measure tumor volumes and calculate the T/C % for each treatment as the ratio of the relative tumor volumes versus the control group. Analyze tumor volumes using RM ANOVA.

CSF-1R = molecular target: T1, CSF-1R (Homo sapiens, UniProt P07333); experiment: Degradation of CSF-1R in NIH-3T3-CSF-1R cells (Western blot, normalized to actin); type: cell-based
T1 construct: expressed in transfected cells
Method: Seed NIH-3T3-CSF-1R cells at 5×10^5 cells/well in a 12 well plate in 1 mL DMEM media containing 10% FBS and 1 mg/mL geniticin. […] CSF-1 is known to induce internalization and degradation of CSF-1R, thereby acting as a positive control for the experiment. Allow CSF-1 to remain on cells for 1 and 5 hours before collecting cells. […] Aspirate medium, lyse cells and run clarified lysates on gels (as described above). Probe transferred proteins with anti-CSF-1R antibodies to determine the amount of receptor for each condition. Probe the same blots with anti-actin antibodies to normalize protein levels. Quantify CSF-1R and actin levels using the Multi-Gauge program to measure band density on the Western blot. The relative total CSF-1R protein level is represented by the total CSF-1R band density divided by the corresponding actin band density.

## CC(=O)O[C@H]1C(=O)[C@@]2(C)[C@H]([C@H](OC(=O)c3ccccc3)[C@]3(O)C[C@H](OC(=O)[C@H](O)[C@@H](NC(=O)c4ccccc4)c4ccccc4)C(C)=C1C3(C)C)[C@]1(OC(C)=O)CO[C@@H]1C[C@@H]2O [Paclitaxel]
HCC-1954 breast cells; 10 mg/kg IP Q7Dx3, vs saline control, P<0.01
  % T/C: 60%

## CC(=O)O[C@@]12CO[C@@H]1C[C@H](O)[C@@]1(C)C(=O)[C@H](O)C3=C(C)[C@@H](OC(=O)[C@H](O)[C@@H](NC(=O)OC(C)(C)C)c4ccccc4)C[C@@](O)([C@@H](OC(=O)c4ccccc4)[C@H]21)C3(C)C [Docetaxel]
DU145 prostate cells
  % T/C: 59%

## COc1cccc2c1C(=O)c1c(O)c3c(c(O)c1C2=O)C[C@@](O)(C(=O)CO)C[C@@H]3O[C@H]1C[C@H](N)[C@H](O)[C@H](C)O1 [Doxorubicin]
HCC-1954 breast cells; 8 mg/kg IP Q7Dx2, vs saline control, P 0.008
  % T/C: 50%

B1: CSF-1: Colony Stimulating Factor-1, CSF-1R ligand, positive control for receptor degradation (protein, listed as Homo sapiens)
chain: MTAPGAAGRCPPTTWLGSLLLLVCLLASRSITEEVSEYCSHMIGSGHLQSLQRLIDSQMETSCQITFEFVDQEQLKDPVCYLKKAFLLVQDIMEDTMRFRDNTPNAIAIVQLQELSLRLKSCFTKDYEEHDKACVRTFYETPLQLLEKVKNVFNETKNLLDKDWNIFSKNCNNSFAECSSQDVVTKPDCNCLYPKAIPSSDPASVSPHQPLAPSMAPVAGLTWEDSEGTEGSSLLPGEQPLHTVDPGSAKQRPPRSTCQSFEPPETPVVKDSTIGGSPQPRPSVGAFNPGMEDILDSAMGTNWVPEEASGEASEIPVPQGTELSPSRPGGGSMQTEPARPSNFLSASSPLPASAKGQQPADVTGTALPRVGPVRPTGQDWNHTPQKTDHPSALLRDPPEPGSPRISSLRPQGLSNPSTLSAQPQLSRSHSSGSVLPLGELEGRRSTRDRRSPAEPEGGPASEGAARPLPRFNSVPLTDTGHERQSEGSFSPQLQESVFHLLVPSVILVLLAVGGLLFYRWRRRSHQEPQRADSPLEQPEGSPLTQDDRQVELPV
CSF-1R; 100 ng/mL CSF-1, by 5 hours, positive control
  CSF-1R levels (degradation): halved
CSF-1R; 100 ng/mL CSF-1, positive control
  time to degradation of CSF-1R: ≤ 1 h
